{
  "source": "patent US4596710A",
  "about": "“Gallium chloride as a new anti-cancerous drug” (priority 1981, dated 1986)",
  "key": {"adenocarcinoma": {"system": "adenocarcinoma", "experiment": "Long-term treatment of two bitches with evolutive third recurrence of mammary tumour", "type": "in vivo, female dogs"}, "[1]": {"system": "left axillary lymphadenopathy", "experiment": "2nd patient: gallium chloride treatment, tumour response", "from_the_text": "A complete check-up to seek primary localisation was undertaken. In view of the negative nature of this check-up, the diagnosis of cutaneous primary tumour, developed at the expense of the cutaneous appendants (eccrine tumour) was retained."}, "globular Mg": {"system": "globular Mg", "experiment": "Globular Mg rates in patients in the course of treatment", "type": "in vivo, human", "text": "The importance of checking the globular Mg rates was furthermore clearly illustrated by the following two observations (3rd and 4th patients).\nOn Sept. […] This was the case. . . […] 29th, 1981. This posology was tolerated up to Nov. […] Up to Nov. […] It was from Sept.\nA person . . . […] On Oct. […] An exploratory laparotomy was made on Nov. […] 7th, 1982.\nFIGS. 1, 2 and 3 show the curves of the globular Mg (1) and plasmatic Mg (2) rates as a function of time in the course of treatment by gallium chloride (the starting point of the curves corresponding to the first administration) of the three patients. A person […] (1st patient, […] (3rd Patient) and a person […] (4th patient, respectively.\nTo follow the globular Mg rates, the dosages must be frequent and repeated, about once a week. In fact, there are cyclic variations of the globular Mg rates with a curve of sinusoidal appearance, and the period of these cycles, like the importance of the globular Mg rates, are a function of the evolutive potential of the malignant tumour (P. COLLERY et col. \"Role of Magnesium in the Development of Cancer\", Trace Substances in Environmental Health, XII, 1978--A Symposium--University of Missouri--Columbia). The appearance of this curve is modified, as indicated above, by the anti-tumoral therapy by gallium chloride."}},
  "data": [
    {"smiles": "[Cl][Ga]([Cl])[Cl]", "note": "[gallium chloride]", "values": [
      {"measurement": "size of the tumour, second bitch (BEL), 4.1.1981", "setting": "adenocarcinoma; 2.5 mg/kg per os from 27.2.1981, 1.2 cm on 2.27.1981", "result": 1.8, "unit": "cm in diameter"},
      {"measurement": "size of the tumour, second bitch (BEL), 4.30.1981", "setting": "adenocarcinoma; 2.5 mg/kg per os to 30.4.1981", "result": 2.3, "unit": "cm in diameter"},
      {"measurement": "tumour evolution after 10.14.1981, first bitch (OUD)", "setting": "adenocarcinoma; 10 mg/kg per os, up to Dec. 28th, 1981", "result": "tumoral stabilisation"},
      {"measurement": "pulmonary radiograph, second bitch (BEL)", "setting": "adenocarcinoma; 5.1.1982", "result": "normal"},
      {"measurement": "death, first bitch (OUD)", "setting": "adenocarcinoma; Dec. 28th, 1981, good general state during preceding days", "result": "suddenly died (good general state during the preceding days) of a myocardial infarction with acute oedema of the lung and overall heart failure"},
      {"measurement": "autopsy, first bitch (OUD)", "setting": "adenocarcinoma; after death Dec. 28th, 1981", "result": "no hepatic nor pulmonary metastases a small nodule of 1 cm in the spleen"},
      {"measurement": "tumour growth after 9.1.1981, second bitch (BEL)", "setting": "adenocarcinoma; per os", "result": "the growth clearly slowed down with an obvious change in the consistency of the tumour"},
      {"measurement": "tumour growth since Nov. 3rd, 1981, second bitch (BEL)", "setting": "adenocarcinoma; up to surgical excision", "result": "virtually not enlarged since Nov. 3rd, 1981"},
      {"measurement": "excised piece, second bitch (BEL)", "setting": "adenocarcinoma; upon opening of excised tumour", "result": "considerable necrosis occupying virtually all the tumour"},
      {"measurement": "hardness of lymphadenopathy, July 23rd, 1981", "setting": "[1]; 300 mg per day oral", "result": "much harder"},
      {"measurement": "lymphadenopathy, Jan. 6th, 1982", "setting": "[1]; 600 mg and 300 mg alternately, oral", "result": "no longer perceptible"},
      {"measurement": "diameter of lymphadenopathy, Dec. 8th, 1981", "setting": "[1]; 600 mg per day oral", "result": 1, "unit": "cm in diameter"},
      {"measurement": "dorsal osseous pains, 2nd patient", "setting": "[1]; Jan. 6th, 1982", "result": "dorsal osseous pains persisted, but of mechanical type, completely calmed by rest"},
      {"measurement": "regression of the lymphadenopathy", "setting": "[1]; oral from May 20th, 1981, from end of July 1981", "result": "progressive regression of the lymphadenopathy"},
      {"measurement": "globular magnesium rates, 4th patient, Oct. 15th, 1981", "setting": "globular Mg; 300 mg/24 hours oral", "result": 3.00, "unit": "mmol/L"},
      {"measurement": "globular magnesium rates, 3rd patient, Oct. 6th, 1981", "setting": "globular Mg; 800 mg/24 hours, after heparinotherapy stopped", "result": 2.96, "unit": "mmol/L"},
      {"measurement": "globular magnesium rates, curves of FIGS. 1-3", "setting": "globular Mg; 1st, 3rd and 4th patients, when treatment is efficacious", "result": "decrease"},
      {"measurement": "globular Mg rates, first 4 months, 4th patient", "setting": "globular Mg; 500 then 300 mg/24 hours oral", "result": "normal"},
      {"measurement": "correlation between clinical state, carcinoembryonic antigen and globular magnesium rates, 4th patient", "setting": "globular Mg; human, in vivo", "result": "could be emphasized"}
    ]}
  ]
}
